These results are taken from patent US20220370390A1, “LIQUID ORAL FORMULATION OF BUMETANIDE” (NEUROCHLORE, priority 2019, published 2022).

Values after ≈ are worked out from the molar mass of the structure shown. Where two headings read alike, the source gives them in different places.

For data set [1] the following is noted: cited from earlier work.
Data set [2] concerns ASD core symptoms. Description: Phase 2 clinical trial of oral bumetanide formulation. It is filed as in vivo, children and adolescents. The note with it: oral liquid formulation twice a day, paediatric population. On the procedure:
A phase 2 clinical trial that was run with various doses of the following oral formulation of bumetanide according to the invention: • Active ingredient: bumetanide at 0.5 mg/ml 1.0 mg/ml 2.0 mg/ml and placebo • Antimicrobial preservative: sodium methylparaben and sodium propylparaben • Buffering agents: NaH2PO4.2H2O and NaH2PO4 • Sweetening agents: Acesulfame potassium and sorbitol • Solvent: water The pH is 6.5. The liquid oral formulation is stored in an amber glass bottle with polypropylene/low density polyethylene child-resistant and tamper-evident cap. A 1 ml dosing pipette, consisting of a polystyrene plunger and a low-density polyethylene barrel and piston was used to administer directly the solution into the mouth. The posology was an oral administration of the liquid formulation twice a day for a paediatric population.

In the case of `CCCCNc1cc(C(=O)O)cc(S(N)(=O)=O)c1Oc1ccccc1` [Bumetanide, 3-(Butylamino)-4-phenoxy-5-sulfamoylbenzoic acid], the solubility – broadly, the dissolved amount per volume that the medium holds – is “sparingly soluble” in data set [1] (in aqueous buffers), 33 mg/mL (≈ 90.6 mM) in data set [1] (in dimethyl formamide (DMF)) and 14 mg/mL (≈ 38.4 mM) in data set [1] (in ethanol). The “severity of ASD core symptoms” value in data set [2] is reported as “can reduce the severity of ASD core symptoms”.
